Experimental data as given in paper PMC11887673, “Malformin C preferentially kills glioblastoma stem‐like cells via concerted induction of proteotoxic stress and autophagic flux blockade” (Molecular Oncology, 2024).
Bridge positions count the residues as written; N and C are the ends. Square brackets hold non-standard residues; d marks the D form. Peptide text beside a SMILES is read from it.

Key:
NCH421k [1] = assay: Assessment of synergy, combination cell viability (CellTiter-Glo); assay type: cell-based, human
Description: NCH421k cells were seeded in 96‐well white plates with 8500 cells per well in 40 μL medium. To determine control curves, cells were treated with 50 μL of a 2× concentration of TMZ or CQ and 10 μL of medium and incubated for 48 h. For drug combinations, cells were treated with 10 μL of a 10× concentration of malformin C and with 50 μL of a 2× concentration of TMZ or CQ. Cell viability was determined after 48 h using the CellTiter‐Glo® assay according to the manufacturer's instructions. Synergy was determined using […] at https://synergyfinder.org/ [35].

[2] = test system: NCH421k GSCs expressing luciferase; assay: In vivo tumor propagation, flank xenograft; design: species or system NSG mice
Description: (§1) NCH421k GSCs were transduced with lentiviral particles carrying the pLenti PGK V5‐LUC Neo plasmid, which was a gift from Eric Campeau (Addgene plasmid # 21471) and transduced cells were selected using 400 μg·mL^−1 G418. Six‐week‐old female NOD.Cg‐Prkdc ^ scid Il2rg ^ tm1Wjl /SzJ (NOD‐SCIDγ) mice were obtained from the animal facility at the DKFZ. All animal experiments were performed according to animal welfare regulations and were approved by the responsible authorities (Regierungspräsidium Karlsruhe, approval number G289‐14). Animals were housed in a temperature‐controlled vivarium on a 12 h : 12 h light–dark cycle with ad libitum food and water, and all animals were monitored daily for health status and tumor‐related symptoms. […] Tumor growth was monitored using an IVIS Lumina Preclinical in vivo IMAGING SYSTEM AND LIVING IMAGE Software (version 2.50.1) (Perkin Elmer, Rodgau, Germany) and volume measurement using calipers once a week for 7 weeks, or until the tumor reached a volume of 500 mm^3.
(§2) Malformin C has been previously reported to induce fatal toxicity at doses of over 0.9 mg·kg^−1 in BDF1 mice, likely due to an acute inflammatory response. […] Seven days later, after engraftment of the cells was confirmed by the appearance of a luminescence signal, mice were treated with malformin C or DMSO (0.5 mg·kg^−1 3 × per week) for 37 days. […]

NCH421k [3] = assay: Caspase 3/7 activation (Caspase Glo); assay type: cell-based, human; details: 50 nM, within 6–8 h, n = 3
Description: (§3) A total of 5000 cells were seeded into white 96‐well plates in a volume of 50 μL medium. Malformin C or Az‐mal. C was added to the medium at the indicated concentrations and incubated for the indicated times. Caspase 3/7 activity was measured using the Caspase Glo assay (Promega), according to the manufacturer's protocol.

NCH441 = assay: Caspase 3/7 activation (Caspase Glo); assay type: cell-based, human; details: 50 nM, within 6–8 h, n = 3
Description: as §3

[4] = test system: primary astrocytes (pAstro); assay: Caspase 3/7 activation (Caspase Glo); assay type: cell-based, human; details: 50 nM, 8 h, n = 3
Description: as §3

fibroblasts (BJ) = assay: Caspase 3/7 activation (Caspase Glo); assay type: cell-based, human; details: 50 nM, 8 h, n = 3
Description: as §3

BDF1 mice = details: cited from earlier work
Description: Malformin C has been previously reported to induce fatal toxicity at doses of over 0.9 mg·kg^−1 in BDF1 mice, likely due to an acute inflammatory response. […] In a pharmacokinetic study, malfo ...

[5] = test system: NOD scid gamma (NSG) mice; assay: Toxicity and tolerability of repeated doses; assay type: in vivo, mouse
Description: as §1, §2

[6] = Pharmacokinetics in plasma and blood brain barrier penetration after i.v. administration; assay type: in vivo; details: RjOrl:Swiss CD-1, mouse, iv, male CD-1 mice, 0.5 mg·kg^−1 i.v., LC–MS
Description: Pharmacokinetic (PK) parameters in plasma and blood brain barrier penetration after intravenous administration of malformin C were evaluated by Pharmacelsus GmbH. Nine adult male RjOrl : Swiss CD‐1 mice were injected i.v. with 0.5 mg·kg^−1 malformin C. K‐EDTA plasma was obtained from the retrobulbar venous plexus under isoflurane anesthesia. The plasma samples were prepared within 45 min after collection, frozen at −20 °C, and stored at this temperature until processed for LC–MS analysis. For brain collection, mice were sacrificed by cervical dislocation, immediately after the last blood sample was obtained. Brains were dissected, frozen, and stored at −20 °C. PK analysis was performed using […] 5.0 Software, Allersberg, Germany. All experimental procedures were approved by and conducted in accordance with the regulations of the local Animal Welfare authorities (Landesamt für Gesundheit und Verbraucherschutz, Abteilung Lebensmittel‐und Veterinärwesen, Saarbrücken).

GSCs = assay: Cell viability, GSCs compared with normal or other cells; assay type: cell-based, human; details: 48 h, CellTiter-Glo
Excerpt: GSC lines NCH421k, NCH441, NCH644, NCH711d, and NCH705 were derived from newly diagnosed GB patients who underwent surgical resection according to the research proposals approved by the Institutional Review Board at the Medical Faculty of Heidelberg (license: Neurosurgery brain tissue 005/2003; samples collected between 2003 and 2010 at Heidelberg University Hospital from patients who gave informed written consent) and performed in accordance to the Declaration of Helsinki. The cells were cultivated in serum‐free stem cell medium up to maximum passage 60 as previously described. Human astrocytes originating from fetal cerebral cortex were purchased from ScienCell, Research Laboratories, Carlsbad, CA, USA (#1800) and cultured in DMEM (Sigma‐Aldrich, Steinheim, Germany) supplemented with 10% (v/v) FCS (Merck Millipore, Darmstadt, Germany), 1 mM sodium pyruvate, 1 × GlutaMAX, and 1 × N‐2 supplement (all Life Technologies, Darmstadt, Germany). Human fetal neural stem cells (HFNSCs) were kindly provided by Dr C Watts at the Department of Clinical Neurosciences, University of Cambridge. Tissue procurement was approved by the Cambridge Local Regional Ethics committee and in accordance with section 16(e) (ii) of the United Kingdom Human Tissue Act and the Declaration of Helsinki. They were established from 12‐ to 14‐week‐old human postmortem fetal tissue as described by Iovino et al. The cells were cultured as neurospheres in neural stem cell medium (DMEM/F‐12 medium, 2% (v/v) B27 supplement, at 20 ng·mL^−1 each of bFGF and EGF, 2.5 μg·mL^−1 heparin). BJ cells (RRID: CVCL_3653) (human fibroblasts) were purchased from ATCC and cultivated in DMEM low glucose supplemented with 10% FCS. […]
Cells were seeded in 96‐well plates at a density of 8500 cells per well. […] Cell viability was assessed by the CellTiter‐Glo® (Promega) luminescent cell viability assay. […] Data were normalized to the vehicle control, and four parameter logistic curves were fitted and IC50 values calculated using […] […]

Molecule: CCN(CC)CCCC(C)Nc1ccnc2cc(Cl)ccc12 (stereo not shown) [CQ, chloroquine]
- synergy with malformin C (SynergyFinder, ZIP synergy score) (NCH421k [1]): much stronger
- inhibition at 23.7 µM (NCH421k [1]; Homo sapiens, 48 h, CQ 23.7 μM, Malformin C 0 nM, n = 3): 17%
- inhibition at 31.6 µM (NCH421k [1]; Homo sapiens, 48 h, CQ 31.6 μM, Malformin C 0 nM, n = 3): 32%
- inhibition at 42.2 µM (NCH421k [1]; Homo sapiens, 48 h, CQ 42.2 μM, Malformin C 0 nM, n = 3): 33%
- inhibition at 75 µM (NCH421k [1]; Homo sapiens, 48 h, CQ 75 μM, Malformin C 0 nM, n = 3): 99%

Molecule: Cn1nnc2c(C(N)=O)ncn2c1=O [TMZ, temozolomide]
- synergy with malformin C (SynergyFinder, ZIP synergy score) (NCH421k [1]): synergistic effect
- inhibition at 80 µM (NCH421k [1]; Homo sapiens, 48 h, TMZ 80 μM, Malformin C 0 nM, n = 3): 2%
- inhibition at 160 µM (NCH421k [1]; Homo sapiens, 48 h, TMZ 160 μM, Malformin C 0 nM, n = 3): 6%
- inhibition at 310 µM (NCH421k [1]; Homo sapiens, 48 h, TMZ 310 μM, Malformin C 0 nM, n = 3): 6%
- inhibition at 500 µM (NCH421k [1]; Homo sapiens, 48 h, TMZ 500 μM, Malformin C 0 nM, n = 3): 22%
- inhibition at 1000 µM (NCH421k [1]; Homo sapiens, 48 h, TMZ 1000 μM, Malformin C 0 nM, n = 3): 47%

Molecule: CC(C)C[C@@H]1NC(=O)[C@@H](CC(C)C)NC(=O)[C@H](C(C)C)NC(=O)[C@H]2CSSC[C@@H](NC1=O)C(=O)N2 [malformin C] (cyclo(L[dC][dC]V[dL]); disulfide 2-3)
- weights of the mice ([2]; 0.5 mg·kg^−1 i.p. 3 × per week, NSG mice, during the study): did not affect the weights of the mice
- tumor growth (luminescence, caliper volume) ([2]; flank of NSG mice, 0.5 mg·kg^−1 i.p. 3 × per week for 37 days, monitored 49 days, n = 9 vs 8 DMSO): dramatically suppressed tumor growth
- caspase 3/7 activation (NCH421k [3]): significantly activated caspases
- caspase 3/7 activation (NCH441): significantly activated caspases
- caspase 3/7 activation [4]: not
- caspase 3/7 activation (fibroblasts (BJ)): not
- doses inducing fatal toxicity (BDF1 mice): over 0.9 mg·kg^−1
- tolerability ([5]; 0.5 mg·kg^−1 i.p. three times per week, NSG mice): tolerated well
- repeated doses causing intolerable toxicity ([5]; immune-deficient NSG mice): over 0.9 mg·kg^−1
- level at time molar at 1 h ([6]; brain, by 1 h, read-out: equivalent molar concentration in the brain): ~1.9 nM
- half-life ([6]; K-EDTA plasma, n=3 mice per time point): 5.8 h

Molecule: CN[C@@H]1C[C@H]2O[C@@](C)([C@@H]1OC)n1c3ccccc3c3c4c(c5c6ccccc6n2c5c31)C(=O)NC4 [staurosporine]
- loss of viability in GSCs compared with normal cells (GSCs): similarly

Molecule: malformin A1
- loss of viability in GSCs compared with normal cells (GSCs): more potent against GSCs than normal cells

Molecule: tunicamycin
- loss of viability in GSCs compared with normal cells (GSCs): not more sensitive than astrocytes
